# Experimental data reported in publication PMC10149103 (Journal of medicinal chemistry, 2022).
# Values joined by “and” are separate entries in the source; they are usually repeats but may differ in a detail not shown here. Equal values may be shown once. Where a name gives a salt, the structure may show the parent alone.
# Experiments:
# [1] = target: T1, KOR (Mus musculus, UniProt P33534); assay type: binding
# [2] = target: MOR (Mus musculus, UniProt P42866); test: biochemical; assay type: biochemical; settings: for Emax: read-out: MOR [35S]GTPγS Binding % Emax of DAMGO
# MOR, sequence (P42866 whole entry): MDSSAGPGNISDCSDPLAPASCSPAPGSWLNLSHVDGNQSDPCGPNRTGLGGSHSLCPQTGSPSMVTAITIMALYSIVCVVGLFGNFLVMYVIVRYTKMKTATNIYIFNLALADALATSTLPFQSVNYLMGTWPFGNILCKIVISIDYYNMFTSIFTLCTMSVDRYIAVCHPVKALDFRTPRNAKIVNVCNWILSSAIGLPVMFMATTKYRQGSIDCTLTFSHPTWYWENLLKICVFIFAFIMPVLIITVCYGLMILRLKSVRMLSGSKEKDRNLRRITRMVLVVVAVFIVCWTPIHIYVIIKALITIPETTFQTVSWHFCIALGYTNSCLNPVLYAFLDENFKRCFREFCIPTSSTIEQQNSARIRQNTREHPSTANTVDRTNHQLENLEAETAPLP
# [3] = target: T2, DOR (Homo sapiens, UniProt P41143); test: biochemical; assay type: binding
# T2 sequence (P41143 whole entry): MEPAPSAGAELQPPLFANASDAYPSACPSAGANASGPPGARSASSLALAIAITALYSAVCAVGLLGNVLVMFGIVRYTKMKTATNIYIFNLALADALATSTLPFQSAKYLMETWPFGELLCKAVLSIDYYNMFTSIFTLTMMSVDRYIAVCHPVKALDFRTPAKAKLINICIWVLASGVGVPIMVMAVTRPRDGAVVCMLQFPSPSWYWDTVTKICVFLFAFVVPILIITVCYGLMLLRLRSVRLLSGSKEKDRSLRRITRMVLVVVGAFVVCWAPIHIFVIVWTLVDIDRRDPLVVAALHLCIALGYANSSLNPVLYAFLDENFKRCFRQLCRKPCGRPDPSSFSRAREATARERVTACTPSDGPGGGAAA
# [4] = target: T2, DOR; test: biochemical; settings: read-out: DOR [35S]GTPγS Binding % Emax of SNC80
# [5] = target: T1, KOR; test: biochemical; settings: read-out: KOR [35S]GTPγS Binding % Emax of U50,488H
# T1 sequence (P33534 whole entry): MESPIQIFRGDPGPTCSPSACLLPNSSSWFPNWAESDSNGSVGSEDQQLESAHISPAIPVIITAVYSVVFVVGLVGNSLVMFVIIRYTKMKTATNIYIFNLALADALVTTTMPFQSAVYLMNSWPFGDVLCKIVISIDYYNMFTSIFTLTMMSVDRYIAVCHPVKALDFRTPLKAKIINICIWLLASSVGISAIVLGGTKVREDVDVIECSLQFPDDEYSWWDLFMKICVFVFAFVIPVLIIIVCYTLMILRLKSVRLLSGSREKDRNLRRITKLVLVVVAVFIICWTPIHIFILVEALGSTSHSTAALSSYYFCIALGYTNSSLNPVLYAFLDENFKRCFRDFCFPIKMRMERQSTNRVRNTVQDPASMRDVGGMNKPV
Compound,Selectivity κ/μ [1],Emax [2],Selectivity δ/μ [3],MOR [35S]GTPγS Binding % Emax of DAMGO [2],Emax [4],Emax [5],Ki [3]
Cl.O=C(CCc1cc[nH]c1)N[C@@H]1CC[C@@]2(O)[C@H]3Cc4ccc(O)c5c4[C@@]2(CCN3CC2CC2)[C@H]1O5 [Compound 12],7,37.7 ± 0.87%,164,,,,
"Cl.O=C(N[C@H]1CC[C@@]2(O)[C@H]3Cc4ccc(O)c5c4[C@@]2(CCN3CC2CC2)[C@H]1O5)c1ccc[nH]1 [Compound 1, 17-Cyclopropylmethyl-3,14β-dihydroxy-4,5α-epoxy-6a-[(2′-pyrrolyl)carboxamido]morphinan Hydrochloride]",,,,12.11 ± 2.64%,50.9 ± 5.25%,43.4 ± 1.36%,
"Cl.O=C(Cc1cc[nH]c1)N[C@@H]1CC[C@@]2(O)[C@H]3Cc4ccc(O)c5c4[C@@]2(CCN3CC2CC2)[C@H]1O5 [Compound 10, 17-Cyclopropylmethyl-3,14β-dihydroxy-4,5α-epoxy-6β-[(3′-pyrrolyl)acetamido]morphinan Hydrochloride]",,53.3 ± 0.95%,,,,,
"Cl.O=C(CCc1ccco1)N[C@H]1CC[C@@]2(O)[C@H]3Cc4ccc(O)c5c4[C@@]2(CCN3CC2CC2)[C@H]1O5 [Compound 17, 17-Cyclopropylmethyl-3, 14β-dihydroxy-4,5α-epoxy-6α-[(2′-furanyl)propanamido]morphinan Hydrochloride]",,,4,,,,
"Cl.O=C(CCc1ccco1)N[C@@H]1CC[C@@]2(O)[C@H]3Cc4ccc(O)c5c4[C@@]2(CCN3CC2CC2)[C@H]1O5 [Compound 18, 17-Cyclopropylmethyl-3,14β-dihydroxy-4,5α-epoxy-6β-[(2′-furanyl)propanamido]morphinan Hydrochloride]",2,,118,,,,
"Cl.O=C(N[C@@H]1CC[C@@]2(O)[C@H]3Cc4ccc(O)c5c4[C@@]2(CCN3CC2CC2)[C@H]1O5)c1ccco1 [Compound 14, 17-Cyclopropylmethyl-3,14β-dihydroxy-4,5α-epoxy-6β-[(2′furanyl)carboxamido]morphinan Hydrochloride]",,24.2 ± 0.9%,,,23.1 ± 0.97%,67.2 ± 2.53%,
"Cl.O=C(N[C@H]1CC[C@@]2(O)[C@H]3Cc4ccc(O)c5c4[C@@]2(CCN3CC2CC2)[C@H]1O5)c1cc[nH]c1 [Compound 7, 17-Cyclopropylmethyl-3,14β-dihydroxy-4,5α-epoxy-6α-[(3′-pyrrolyl)carboxamido]morphinan Hydrochloride]",2,,31,16.65 ± 1.25%,,,
"Cl.O=C(N[C@H]1CC[C@@]2(O)[C@H]3Cc4ccc(O)c5c4[C@@]2(CCN3CC2CC2)[C@H]1O5)c1ccco1 [Compound 13, 17-Cyclopropylmethyl-3,14β-dihydroxy-4,5α-epoxy-6α-[(2′furanyl)carboxamido]morphinan Hydrochloride]",3.83 and 4,21.8 ± 5.19%,62.83 and 63,,,,
"Cl.O=C(Cc1ccco1)N[C@H]1CC[C@@]2(O)[C@H]3Cc4ccc(O)c5c4[C@@]2(CCN3CC2CC2)[C@H]1O5 [Compound 15, 17-Cyclopropylmethyl-3, 14β-dihydroxy-4,5α-epoxy-6α-[(2′-furanyl)acetamido]morphinan Hydrochloride]",,22.6 ± 2.77%,,,66.8 ± 4.24%,63.3 ± 2.5%,
"Cl.O=C(Cc1ccoc1)N[C@@H]1CC[C@@]2(O)[C@H]3Cc4ccc(O)c5c4[C@@]2(CCN3CC2CC2)[C@H]1O5 [Compound 22, 17-Cyclopropylmetyl-3,14β-dihydroxy-4,5α-epoxy-6β-[(3′-furanyl)acetamido]morphinan Hydrochloride]",16.7 and 17,30.8 ± 2.07%,332,,,,
"Cl.O=C(Cc1ccc[nH]1)N[C@@H]1CC[C@@]2(O)[C@H]3Cc4ccc(O)c5c4[C@@]2(CCN3CC2CC2)[C@H]1O5 [Compound 4, 17-Cyclopropylmethyl-3,14β-dihydroxy-4,5α-epoxy-6β-[2′-(2′-pyrrolyl)acetamido]morphinan Hydrochloride]",8,44.2 ± 1.52%,152,,,,
"Cl.O=C(Cc1ccoc1)N[C@H]1CC[C@@]2(O)[C@H]3Cc4ccc(O)c5c4[C@@]2(CCN3CC2CC2)[C@H]1O5 [Compound 21, 17-Cyclopropylmetyl-3, 14β-dihydroxy-4,5α-epoxy-6α-[(3′-furanyl)acetamido]morphinan Hydrochloride]",15,,9,14.95 ± 1.46%,,,
"Cl.O=C(N[C@@H]1CC[C@@]2(O)[C@H]3Cc4ccc(O)c5c4[C@@]2(CCN3CC2CC2)[C@H]1O5)c1ccoc1 [Compound 20, 17-Cyclopropylmethyl-3,14β-dihydroxy-4,5α-epoxy-6β-[(3′-furanyl)carboxamido]morphinan Hydrochloride]",3,25 ± 1.74%,234,,,,
"Cl.O=C(Cc1cc[nH]c1)N[C@H]1CC[C@@]2(O)[C@H]3Cc4ccc(O)c5c4[C@@]2(CCN3CC2CC2)[C@H]1O5 [Compound 9, 17-Cyclopropylmethyl-3, 14β-dihydroxy-4,5α-epoxy-6α-[(3′-pyrrolyl)acetamido]morphinan Hydrochloride]",5,31.6 ± 2.87%,4,,,,
"Cl.O=C(Cc1ccc[nH]1)N[C@H]1CC[C@@]2(O)[C@H]3Cc4ccc(O)c5c4[C@@]2(CCN3CC2CC2)[C@H]1O5 [Compound 3, 17-Cyclopropylmethyl-3,14β-dihydroxy-4,5α-epoxy-6a-[2′-(2′-pyrrolyl)acetamido]morphinan Hydrochloride]",6,25 ± 2.61%,8,,,,
"Cl.O=C(CCc1ccc[nH]1)N[C@H]1CC[C@@]2(O)[C@H]3Cc4ccc(O)c5c4[C@@]2(CCN3CC2CC2)[C@H]1O5 [Compound 5, 17-Cyclopropylmethyl-3,14β-dihydroxy-4,5α-epoxy-6α[3′-(2′-pyrrolyl)propanamido]morphinan Hydrochloride]",,24 ± 3.59%,,,,,
"Cl.O=C(CCc1ccc[nH]1)N[C@@H]1CC[C@@]2(O)[C@H]3Cc4ccc(O)c5c4[C@@]2(CCN3CC2CC2)[C@H]1O5 [Compound 6, 17-Cyclopropylmethyl-3,14β-dihydroxy-4,5α-epoxy-6β-[3′-(2′-pyrrolyl)propanamido]morphinan Hydrochloride]",2,39.3 ± 3.16%,70,,,,
"O=C(Cc1cccs1)N[C@H]1CC[C@@]2(O)[C@H]3Cc4ccc(O)c5c4[C@@]2(CCN3CC2CC2)[C@H]1O5 [Compound 27, 17-Cyclopropylmethyl-3,14β-dihydroxy-4,5α-epoxy-6α-(2′-thienylacetamido)morphinan Hydrochloride]",,,,,,,6.92 ± 1.63 nM
"Cl.O=C(N[C@H]1CC[C@@]2(O)[C@H]3Cc4ccc(O)c5c4[C@@]2(CCN3CC2CC2)[C@H]1O5)c1ccoc1 [Compound 19, 17-Cyclopropylmethyl-3, 14β-dihydroxy-4,5α-epoxy-6α-[(3′-furanyl)carboxamido]morphinan Hydrochloride]",,,,18.14 ± 2.95%,,,
"Cl.O=C(Cc1ccco1)N[C@@H]1CC[C@@]2(O)[C@H]3Cc4ccc(O)c5c4[C@@]2(CCN3CC2CC2)[C@H]1O5 [Compound 16, 17-Cyclopropylmethyl-3,14β-dihydroxy-4,5α-epoxy-6β-[(2′-furanyl)acetamido]morphinan Hydrochloride]",,40 ± 0.9%,,,31.2 ± 1.49%,49.3 ± 1.07%,
